Results taken from paper PMC8808565 (iScience, 2022).
Entries after “also recorded” stand apart in the source; their conditions may differ. No end group written: not given here.

Assays:
[1] = ref Koeninger et al., 2020; cited from earlier work
[2] = target: recombinant SARS-CoV-2 spike receptor-binding domain (rRBD); assay: Surface plasmon resonance; settings: read-out: KD (abstract, rounded)
[3] = test system: various viruses, including coronaviruses; settings: ref Kim et al., 2018; cited from earlier work
RBD:ACE2 binding = format: cell-based, SARS-CoV-2 RBD; human ACE2
His-tagged rRBD = format: binding, SARS-CoV-2
[4] = test system: CoV-2 spike-pseudotyped virus infection of ACE2-expressing HEK 293T cells; format: cell-based, SARS-CoV-2 (spike pseudotyped lentivirus); human cells
[5] = cationic, 41 amino acids; ref Sawai et al., 2001; cited from earlier work
[6] = test system: VSVG-pseudotyped virus infection of ACE2-expressing HEK 293T cells; format: cell-based
RBD = settings: bilayer interferometry; ref Wang et al., 2021a; cited from earlier work

| Substance | ratio of hemolytic concentration to IC50 (Hemolytic activity) [times] | concentration at which hemolytic activity begins [1] [µM] | Kd [2] [nM] | antiviral effect (in words) [3] | effect on RBD:ACE2 binding (in words) (RBD:ACE2 binding) | co-precipitation with His-RBD (in words) (His-tagged rRBD) | effect on CoV-2 spike-mediated infection (in words) [4] | charge [5] | inhibition of VSVG-pseudotyped virus infection (in words) [6] | binding interaction with RBD (in words) (RBD) |
| --- | --- | --- | --- | --- | --- | --- | --- | --- | --- | --- |
| GIGDPVTCLKSGAICHPVFCPRRYKQIGTCGLPGTKCCKKP (disulfide (positions not given here)) [hBD-2, Human beta defensin 2] | 25 | 70 | ~2000 | interrupt viral infection of various viruses, including coronaviruses | preventing it from binding to ACE2-expressing cells; also recorded: competitively decreased RBD-ACE2 binding; also recorded: reduced RBD:ACE2 binding; also recorded: blocks spike-RBD:ACE2 binding | significant binding of hBD-2 to His-RBD | dose-dependently decreased entry of CoV-2 spike-mediated infection; also recorded: inhibited viral entry into ACE2-expressing HEK 293T cells in a dose-dependent manner | +6 | not VSVG-mediated infection; also recorded: no inhibition | – |
| LL-37 | – | – | – | – | – | – | – | – | – | strong binding interaction |
